In patent US6838436B1, “Inhibitors of proteasomal activity for stimulating bone growth” (Osteoscreen Inc., priority 1998, dated 2005):
Like-named read-outs stand apart in the source and are kept apart here. Values belong to the molecule of their own block, whether it stands above or below them. Where a SMILES comes first, the peptide text is derived from it. [ ]: non-standard residue; d: D form. The star is where a group is joined. Nva = CCC[C@H](N)C(=O)O; Cbz = O=C(OCc1ccccc1)*; OtBu = CC(C)(C)O*

Experiments:
[1] = system: hair follicles of skin explants; experiment: Skin explants from mice during telogen (Example 16); format: cell-based; conditions: 72 hours
Excerpt: In the untreated control explants, the follicles were few and small.

papain = molecular target: T1, papain (Carica papaya, UniProt P00784); conditions: cited from earlier work
T1 sequence (P00784 134-345): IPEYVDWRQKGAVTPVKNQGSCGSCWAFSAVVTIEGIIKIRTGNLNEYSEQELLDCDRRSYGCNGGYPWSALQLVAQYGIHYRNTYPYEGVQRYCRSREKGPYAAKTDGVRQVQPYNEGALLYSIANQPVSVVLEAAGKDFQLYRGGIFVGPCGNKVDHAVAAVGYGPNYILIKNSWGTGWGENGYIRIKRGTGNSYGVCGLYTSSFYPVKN

chymotrypsin = chymotrypsin (Bos taurus, UniProt P00766); conditions: cited from earlier work
calpain = conditions: cited from earlier work
neonatal mouse calvaria = experiment: Neonatal mouse calvaria assay (in vitro / ex vivo) for bone formation; format: cell-based, ICR Swiss white mouse; conditions: for EC50: read-out: Bone Formation (ED50-μM)
Method: An assay for bone resorption or bone formation is similar to that described by Gowen M. & Mundy G., J Immunol (1986) 136:2478-82. Briefly, four days after birth, the front and parietal bones of ICR Swiss white mouse pups are removed by microdissection and split along the sagittal suture. In an assay for resorption, the bones are incubated in BGJb medium (Irvine Scientific, Santa Ana, Calif.) plus 0.02% (or lower concentration) β-methylcyclodextrin, wherein the medium also contains test or control substances. The medium used when the assay is conducted to assess bone formation is Fitton and Jackson Modified BGJ Medium (Sigma) supplemented with 6 μg/ml insulin, 6 μg/ml transferrin, 6 ng/ml selenous acid, calcium and phosphate concentrations of 1.25 and 3.0 mM, respectively, and ascorbic acid to a concentration of 100 μg/ml is added every two days. The incubation is conducted at 37° C. in a humidified atmosphere of 5% CO2 and 95% air for 96 hours.
Following this, the bones are removed from the incubation media and fixed in 10% buffered formalin for 24-48 hours, decalcified in 14% EDTA for 1 week, processed through graded alcohols; and embedded in paraffin wax. Three […] sections of the calvaria are prepared. Representative sections are selected for histomorphometric assessment of bone formation or bone resorption. Bone changes are measured on sections cut 200 μm apart. Osteoblasts and osteoclasts are identified by their distinctive morphology.
Selected compounds and appropriate controls were assayed in vitro (ex vivo) for bone formation activity (described above in “Techniques for Neonatal Mouse Calvaria Assay (in vitro)). Histomorphometrical assessments of ex vivo calvaria were carried out using an OsteoMetrics bone morphometry measurement program, according to the manufacturer's instructions. Measurements were determined using either a 10- or 20-fold objective with a standard point counting eyepiece graticule.
New bone formation was determined (using a 10× objective) by measuring the new bone area formed in one field in 3 representative sections of each bone (4 bones per group). Each measurement was carried out ½ field distance from the end of the suture. Both total bone and old bone area were measured. Data were expressed as new bone area in μm^2.
Osteoblast numbers are determined by point counting. The number of osteoblast cells lining the bone surface on both sides of the bone are counted in one field using a 20× objective. Data are expressed as osteoblast numbers/mm of bone surface. […]

calvaria of normal mice = experiment: In vivo assay of effects on murine calvarial bone growth; parameters: species or system ICR Swiss white mice; conditions: for % Increase in Bone Area Compared with Control: p < 0.05; for % Increase in New Bone Width: p < 0.001
Method: Male ICR Swiss white mice, aged 4-6 weeks and weighing 13-26 gm, are employed, using 4-5 mice per group. The calvarial bone growth assay is performed as described in PCT application WO95/24211, incorporated by reference. Briefly, the test compound or appropriate control vehicle is injected into the subcutaneous tissue over the right calvaria of normal mice. Typically, the control vehicle is the vehicle in which the compound was solubilized, and is PBS containing 5% DMSO or is PBS containing Tween (2 μl/10 ml). The animals are sacrificed on day 14 and bone growth measured by histomorphometry. Bone samples for quantitation are cleaned from adjacent tissues and fixed in 10% buffered formalin for 24-48 hours, decalcified in 14% EDTA for 1-3 weeks, processed through graded alcohols; and embedded in paraffin wax. Three to five μm sections of the calvaria are prepared, and representative sections are selected for histomorphometric assessment of the effects on bone formation and bone resorption. Sections are measured by using a camera lucida attachment to trace directly the microscopic image onto a digitizing plate. Bone changes are measured on sections cut 200 μm apart, over 4 adjacent 1×1 mm fields on both the injected and noninjected sides of the calvaria. New bone is identified by its characteristic woven structure, and osteoclasts and osteoblasts are identified by their distinctive morphology. Histomorphometry software (OsteoMeasure, Osteometrix, Inc., Atlanta) is used to process digitizer input to determine cell counts and measure areas or perimeters.
Typical treatment regimens for testing utilize application of the compound to be tested over several days of repeated administration.
PSI and MG-132 were assayed in vivo according to the procedure described previously (see “In vivo Assay of Effects of Compounds on Murine Calvarial Bone Growth”, supra). As a control, simvastatin provided a 1.5 fold increase in the number of osteoblasts.
In one experiment, vehicle control, bFGF and varying doses of PSI were tested in the in vivo calvarial bone growth assay. The results are reported as a measurement of total bone area, % increase in area over vehicle control, and % increase in new bone width as shown below.

hair follicles = experiment: Stimulation of hair growth after wax hair stripping, subcutaneous injection (Example 9); format: in vivo, Male Swiss ICR mice
Method: Male Swiss ICR mice were first treated to remove hair from the scalp and dorsal regions as follows. Paraffin wax was liquefied by heating to 55° C. and the liquefied wax then applied by brush to the scalp and/or back (under anesthesia). The wax was allowed to solidify and then removed. The day following hair stripping, PSI (1 mg/kg/day) was injected subcutaneously three times a day for five days into the scalp and dorsal region. […] The mice were sacrificed on day 21 and histology was performed on the dermis of the scalp and of the dorsal region. […] Upon closer examination, it was observed that mice that had received only vehicle had quiescent hair follicles.

[2] = Mus musculus, calvarial assay in vitro

Molecule: CC[C@H](C)[C@H](NC(=O)[C@H]([C@@H](C)CC)N(C)C(C)=O)C(=O)N[C@H](C(=O)N[C@@H](CC(C)C)C(=O)[C@@]1(C)CO1)[C@@H](C)O [Epoxomicin]
hair follicle diameter and follicle elongation ([1]; 25 nM): obvious increase in hair follicle diameter, and follicle elongation | concentration up to which no inhibition appears (papain): > 50 µM | concentration up to which no inhibition appears (chymotrypsin): > 50 µM | concentration up to which no inhibition appears (calpain): > 50 µM

Molecule: CC(=O)N[C@@H](CSC(=O)[C@]1([C@@H](O)C(C)C)NC(=O)[C@H](C)[C@@H]1O)C(=O)O [Lactacystin, lactacystin]
new bone formation in the in vitro calvarial assay (neonatal mouse calvaria): showed new bone formation | EC50 (neonatal mouse calvaria; [2]): 1 µM

Molecule: CCC[C@@H](C=O)NC(=O)[C@H](CC(C)C)NC(=O)[C@H](CC(C)C)NC(=O)OCc1ccccc1 [MG-115, N-carbobenzoyl-Leu-Leu-Nva-CHO] (Cbz-Leu-Leu-[Nva]-aldehyde)
new bone formation in the in vitro calvarial assay (neonatal mouse calvaria): positive results although less dramatic than those of simvastatin | EC50 (neonatal mouse calvaria; [2]): 1 µM

Molecule: CC(C)C[C@@H](C=O)NC(=O)[C@@H](CC(C)C)NC(=O)[C@H](CC(C)C)NC(=O)OCc1ccccc1 [MG-132, N-carbobenzoyl-Leu-Leu-Leu-CHO] (Cbz-Leu-[dL]-Leu-aldehyde)
new bone formation in the in vitro calvarial assay (neonatal mouse calvaria): showed new bone formation | EC50 (neonatal mouse calvaria; Mus musculus): 0.5 µM

Molecule: CC[C@H](C)[C@H](NC(=O)OCc1ccccc1)C(=O)N[C@@H](CCC(=O)OC(C)(C)C)C(=O)N[C@@H](C)C(=O)N[C@H](C=O)CC(C)C [PSI, N-carbobenzoyl-Ile-Glu-(OtBu)-Ala-Leu-CHO] (Cbz-IE(OtBu)AL-aldehyde)
inducing bone formation compared with BMP-2 and bFGF (neonatal mouse calvaria): as good as, or better than, BMP-2 and bFGF | EC50 (neonatal mouse calvaria; [2]): 0.03 µM | histological examination of bone growth (calvaria of normal mice; 5 mg/kg/day and 1 mg/kg/day of PSI): confirmation of bone growth | Total Bone Area (calvaria of normal mice; PSI 0.1 mg/kg/day): 0.74 ± 0.02 mm² | % Increase in Bone Area Compared with Control (calvaria of normal mice; PSI 0.1 mg/kg/day): 21.7 ± 3.5% | Total Bone Area (calvaria of normal mice; PSI 1 mg/kg/day): 0.83 ± 0.02 mm² | % Increase in New Bone Width (calvaria of normal mice; PSI 1 mg/kg/day): 19.9 ± 2.0% | % Increase in Bone Area Compared with Control (calvaria of normal mice; PSI 1 mg/kg/day): 35.4 ± 3.4% | Total Bone Area (calvaria of normal mice; PSI 5 mg/kg/day): 0.79 ± 0.03 mm² | % Increase in New Bone Width (calvaria of normal mice; PSI 5 mg/kg/day): 19.9 ± 4.4% | % Increase in Bone Area Compared with Control (calvaria of normal mice; PSI 5 mg/kg/day): 32.1 ± 5.6% | number of hair follicles versus control mice (hair follicles; 1 mg/kg/day subcutaneously three times a day for five days, day 7 dermal punch biopsy): large increase in the number of hair follicles | hair growth rate (hair follicles; 1 mg/kg/day subcutaneously, by day 18): hair growth rate greater than that of the mice in the control group | mature hair follicles in the lower region of the dermis (hair follicles; 1 mg/kg/day subcutaneously, day 21 histology): mature hair follicles in numbers much greater than in controls | hair follicle diameter and follicle elongation ([1]; 50 nM): obvious increase in hair follicle diameter, and follicle elongation

EC50 (neonatal mouse calvaria; calvarial assay in vitro): 0.2 µM
Molecule: simvastatin
new bone formation in the in vitro calvarial assay (neonatal mouse calvaria): showed new bone formation | increase in the number of osteoblasts (calvaria of normal mice; mouse, in vivo): 1.5 fold
